Reference: US20120065153A1, “AZASUGAR DERIVATIVES, HEPARANASE INHIBITORS, METHOD FOR PREPARING SAME, COMPOSITIONS CONTAINING SAME, USE THEREOF” (SANOFI-AVENTIS, priority 2004, published 2012)

Experiments:
heparanase = target: T1, heparanase (Homo sapiens, UniProt Q9Y251); experiment: Heparanase inhibition in an enzymatic system (degradation of fondaparinux, read out by anti-factor Xa activity); assay type: biochemical; settings: mean±SD, done on two assays
T1 sequence (Q9Y251 36-543): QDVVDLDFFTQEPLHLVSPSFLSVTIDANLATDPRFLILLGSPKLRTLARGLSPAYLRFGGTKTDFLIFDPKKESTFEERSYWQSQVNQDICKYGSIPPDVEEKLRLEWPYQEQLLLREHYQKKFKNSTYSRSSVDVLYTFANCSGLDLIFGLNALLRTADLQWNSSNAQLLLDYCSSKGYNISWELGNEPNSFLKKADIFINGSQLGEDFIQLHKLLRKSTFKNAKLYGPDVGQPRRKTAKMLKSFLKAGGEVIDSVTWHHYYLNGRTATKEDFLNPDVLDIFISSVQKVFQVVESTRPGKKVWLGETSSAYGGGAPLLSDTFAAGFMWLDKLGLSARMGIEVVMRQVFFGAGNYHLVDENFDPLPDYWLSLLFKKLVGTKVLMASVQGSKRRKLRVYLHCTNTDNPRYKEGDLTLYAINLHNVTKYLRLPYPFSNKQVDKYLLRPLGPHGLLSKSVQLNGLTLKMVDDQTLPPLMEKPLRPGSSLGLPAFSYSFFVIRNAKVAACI
Protocol: The concentration of fondaparinux is determined by means of its anti-factor Xa activity.
The heparanase is produced by Sanofi-Synthelabo (Labège, France).
The reagents for assaying factor Xa are marketed by Chromogénix (Montpellier, France).
Increasing concentrations of a compound according to the invention, an inhibitor of heparanases (varying dilutions: from 1 nM to 10 μM) are mixed at a fixed heparanase concentration (for each batch, preliminary experiments make it possible to determine the enzymatic activity which is sufficient for the degradation of 0.45 μg/ml of added fondaparinux). After 5 minutes at 37° C., the mixture is exposed to fondaparinux and left for 1 hour at 37° C. The reaction is stopped by heating at 95° C. for 5 minutes. The residual fondaparinux concentration is finally measured by adding factor Xa and its specific chromogenic substrate (Ref. S2222).
The various mixtures are produced according to the following procedure:
50 μl of sodium acetate buffer (0.2 M, pH 4.2) are mixed with 50 μl of fondaparinux (0.45 μg/ml) and 59 μl of a heparanase solution. The mixture is incubated for 1 hour at 37° C. and then for 5 minutes at 95° C. […]
The anti-factor Xa activity of fondaparinux is measured in the following manner: […]
The optical density is read at 405 nm.
A percentage inhibition is determined relative to control without inhibitor. […]

HT1080 tumour cells = experiment: Invasion of HT1080 tumour cells through Matrigel (cell invasion test); assay type: cell-based, human
Protocol: The effect of the compounds of formula (I), inhibitors of heparanases, was tested in vitro on the invasion of HT1080 tumour cells.
The cells derived from human fibrosarcomas, HT1080 (ATCC CCL-121) are cultured in a DMEM medium (Ref.: GIBCO 11960-044) containing 5% Foetal Calf Serum, glutamine (2 mM) (Ref.: GIBCO 25030-024), sodium pyruvate (1 mM) (Ref.: GIBCO 11360-039) and nonessential amino acids (1×) (Ref.: GIBCO 11140-035), on collagen coated flasks (Becton Dickinson 75 cm^2; Ref. 354523), to 50 to 80% confluence.
The measurements of invasion of the HT1080 cells are carried out on a Becton Dickinson falcon HTS Fluoroblock Multiwell Insert System kit in 24-well plates (Ref.: 351158). These measurement chambers give the cells the conditions which make it possible to evaluate their invasive properties in vitro.
The kit is composed of a plate combined with culture inserts containing a PET membrane pierced with 8 micron pores on which a uniform Matrigel Matrix (Becton Dickinson; Ref. 354230) layer is deposited.
Matrigel is a soluble basal membrane extracted from the EHS (Engelbreth-Holm-Swarm) tumour which, by virtue of its composition, forms, upon solidifying, a structure equivalent to a basal membrane.
The Matrigel layer blocks the pores of the membrane, thus blocking the migration of the noninvasive cells across the membrane. By contrast, the invasive (tumour or nontumour) cells will be capable of becoming detached and of invading the Matrigel layer before migrating across the membrane.
The quantification of the cell migration is carried out by labelling with calcein AM (Molecular Probes C-3100). The fluorescent signal emitted is measured with the aid of a Perkin Elmer Wallac VICTOR 3 reader and may be directly correlated with the number of cells which have invaded the Matrigel gel. By comparing them with controls made in the same experiment as the products studied (response in the presence of 0% and 5% foetal calf serum), it is possible to determine a percentage inhibition of cell invasion in the presence of the products.

| IC50 (heparanase) [nM] | SMILES | inhibition of cell invasion (HT1080 tumour cells; 0.3 μM) [%] | inhibition of cell invasion (HT1080 tumour cells; 1 μM) [%] | inhibition of cell invasion (HT1080 tumour cells; 10 μM, four independent determinations, mean±standard deviation) [%] | effect on cell invasion as a function of dose (HT1080 tumour cells; HT1080 cells) |
| --- | --- | --- | --- | --- | --- |
| 11 ± 4 | O=C(O)[C@H]1CNC[C@@H](O)[C@@H]1O[C@H]1O[C@H](COS(=O)(=O)O)[C@@H](O[C@@H]2O[C@@H](C(=O)O)[C@@H](O[C@H]3O[C@H](COS(=O)(=O)O)[C@@H](O[C@@H]4O[C@@H](C(=O)O)[C@@H](OS(=O)(=O)O)[C@H](O)[C@H]4OS(=O)(=O)O)[C@H](O)[C@H]3NS(=O)(=O)O)[C@H](O)[C@H]2OS(=O)(=O)O)[C@H](O)[C@H]1NS(=O)(=O)O [compound No. 27, (2,4-di-O-sodium sulphonato-α-L-idopyranosyluronate of sodium)-(1-4)-(2-N-sodiumsulphonato-2-deoxy-6-O-sodiumsulphonato-α-D-glucopyranosyl)-(1-4)-(2-O-sodiumsulphonato-α-L-idopyranosyluronate of sodium)-(1-4)-(2-N-sodiumsulphonato-2-deoxy-6-O-sodiumsulphonato-α-D-glucopyranosyl)-(1-4)-(5-(hydroxy)-4-oxypiperidine-3-carboxylate of sodium (3S,4R,5R))] | – | – | – | – |
| – | CC(=O)N[C@H]1[C@@H](O[C@H]2[C@H](O)CNC[C@@H]2C(=O)O)O[C@H](COS(=O)(=O)O)[C@@H](O[C@@H]2O[C@@H](C(=O)O)[C@@H](O[C@H]3O[C@H](COS(=O)(=O)O)[C@@H](O[C@@H]4O[C@@H](C(=O)O)[C@@H](OS(=O)(=O)O)[C@H](O)[C@H]4OS(=O)(=O)O)[C@H](O)[C@H]3NC(C)=O)[C@H](O)[C@H]2OS(=O)(=O)O)[C@@H]1O.[Na+].[Na+].[Na+].[Na+].[Na+].[Na+].[Na+].[Na+] [compound No. 20, (2,4-di-O-sodium sulphonato-α-L-idopyranosyluronate of sodium)-(1-4)-(2-acetamido-2-deoxy-6-O-sodiumsulphonato-α-D-glucopyranosyl)-(1-4)-(2-O-sodiumsulphonato-α-L-idopyranosyluronate of sodium)-(1-4)-(2-acetamido-2-deoxy-6-O-sodiumsulphonato-α-D-glucopyranosyl)-(1-4)-(5-(hydroxy)-4-oxypiperidine-3-carboxylate of sodium (3S,4R,5R))] | 26±3 | 53±11 | 40.3±8.3 | dose-dependent effect |
